Patent publication US7285564B2, “Substituted 4-amino-1-(pyridylmethyl)piperidine and related compounds” (Theravance, Inc., priority 2002, dated 2007)

How the values were obtained:
hM2 receptor = molecular target: T1, hM2 receptor (Homo sapiens, UniProt P08172); experiment: Blockade of agonist-mediated inhibition of cAMP accumulation; assay type: cell-based; details: CHO-K1 cells expressing the hM2 receptor; read-out: Ki for blockade of oxotremorine-inhibition of forskolin-mediated cAMP accumulation
T1 construct: expressed in transfected cells; membranes prepared
T1 sequence (P08172 1-466): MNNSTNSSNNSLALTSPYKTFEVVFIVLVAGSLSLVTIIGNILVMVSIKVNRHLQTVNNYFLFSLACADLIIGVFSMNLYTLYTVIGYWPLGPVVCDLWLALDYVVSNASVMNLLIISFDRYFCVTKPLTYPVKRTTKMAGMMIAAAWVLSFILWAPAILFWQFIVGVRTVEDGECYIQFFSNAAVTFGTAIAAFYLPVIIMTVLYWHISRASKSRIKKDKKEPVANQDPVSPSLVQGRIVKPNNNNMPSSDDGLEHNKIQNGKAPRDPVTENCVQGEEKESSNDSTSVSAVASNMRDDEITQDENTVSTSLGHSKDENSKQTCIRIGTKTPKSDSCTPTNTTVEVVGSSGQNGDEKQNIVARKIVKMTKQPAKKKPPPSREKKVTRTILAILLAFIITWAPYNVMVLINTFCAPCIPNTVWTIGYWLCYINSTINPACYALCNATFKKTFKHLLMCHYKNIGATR
Method: In this assay, the functional potency of a test compound was determined by measuring the ability of the test compound to block oxotremorine-inhibition of forskolin-mediated cAMP accumulation in CHO-K 1 cells expressing the hM2 receptor.
cAMP assays were performed in a radioimmunoassay format using the Flashplate Adenylyl Cyclase Activation Assay System with ^125]-cAMP (NEN SMP004B, PerkinElmer Life Sciences Inc., Boston, Mass.), according to the manufacturer's instructions.
CHO-K1 cells stably expressing cloned human M2 muscarinic receptors were grown to near confluency in a 5% CO2, 37° C. incubator in medium consisting of HAM's F-12 supplemented with 10% FBS (Fetal Bovine Serum) and 250 μg/mL Geneticin. […] The cell pellet was then re-suspended in 10 mL dPBS, and the cells were counted with a Coulter Z1 Dual Particle Counter (Beckman Coulter, Fullerton, Calif.). […]
Reactions were incubated for 10 minutes at 37° C. and stopped by addition of 100 μL ice-cold detection buffer. Plates were sealed, incubated overnight at room temperature and counted the next morning on a PerkinElmer TopCount liquid scintillation counter (PerkinElmer Inc., Wellesley, Mass.). The amount of cAMP produced (pmol/well) was calculated based on the counts observed for the samples and cAMP standards, as described in the manufacturer's user manual. […]

[1] = system: oxotremorine-induced salivation; experiment: In vivo rat salivation assay
Method: Female Sprague-Dawley rats weighing 200 to 300 g were anesthetized with urethane (1.5 g/kg, s.c., Sigma, St. Louis, Mo.), with a supplement of 0.25 g/kg, s.c. urethane as needed. Urethane was administered at a concentration of 0.25 g/mL.
Rats were placed on a heated blanket on their dorsal side in an inclined position (20° angle) position (head down). A swab was placed in the rat's mouth. The test compound or vehicle was administered intravenously via the tail vein. After 5 min., oxotremorine (1.0 mg/kg) was administered subcutaneously. The swab was discarded and
Replaced by a pre-weighed swab. Saliva was then collected for 10 min. and then the swab was removed and re-weighed to determine the output of saliva. Dose-response curves were fitted with a four parameter logistic equation to obtain estimates of ID50 (dose required to produce 50% of the maximal response).
By comparing the ID50 values determined in the rat bladder assay and rat salivation assay, the in vivo bladder/salivation selectivity ratio was calculated for the compounds tested.

- Ki (hM2 receptor): < 1 nM
SMILES: COc1ccncc1CN1CCC(N(CCCCCCCN2CC[C@@H](C(C(N)=O)(c3ccccc3)c3ccccc3)C2)C(C)C)CC1 [Example 1]
- ID50 (salivation) ([1]; intravenous, anesthetized female Sprague-Dawley rats, oxotremorine 1.0 mg/kg s.c.): greater than or equal to 0.9 mg/kg
- ID50 bladder/salivation selectivity ratio ([1]; rat bladder assay vs rat salivation assay): greater than 20
